Experimental data from US20130209515A1, “ANTI-INFECTIVE AND IMMUNOMODULATORY COMPOUNDS” (priority 2005, published 2013).

System: mouse genes
Experiment: Whole genome expression in blood of mice after 2AA (Affymetrix GeneChip)
Format: in vivo
Protocol: To identify how 2AA pre-exposure promotes host defense to better protect against P. aeruginosa infection, we carried out whole genome gene expression studies of mice for several experimental conditions using the mouse full-thickness skin thermal injury infection model, including naïve; BI alone; 2AA treatment alone; 2AA pretreatment plus BI. The mice were injected IP, as we were not yet aware of the improved benefit obtained with IV delivery. Whole blood was collected after 0, 6, 24, 96 and 192 hr post 2AA injection. Also, pretreated BI mice were exposed to 2AA at 1 and 4 days pre-BI, with blood samples collected 24 hr post-BI. The transcriptome profiles were then determined and compared, and genes with statistically significant differences in their expression levels between the samples were further analyzed by pair-wise comparison (see experimental design, section 2.2).
In experiments to determine if T-aminoacetophenone acts as an immunomodulator, eight 6-week old CD-1 male mice were treated intraperitonialy with 500 μl of a 20 mM solution of T-aminoacetophenone in 0.9% NaCl (aq). A control group of mice was administered only 0.9% NaCl. Blood was withdrawn from the mice at time points of 6 hours, 24 hours, 96 hours, and 192 hours, and RNA was extracted from each blood sample.
Mouse GeneChip™ arrays, manufactured by Affymetrix (Santa Clara, Calif.), were used to compare the profile of gene expression in the blood samples of mice. The biotin-labeled cRNA used to hybridize to the GeneChips was prepared from the RNA extracted from the blood samples according to the Affymetrix GeneChip Expression Analysis Technical Manual (Research Genetics, Huntsville, Ala.).
The expression profiles from treated and untreated mice were compared and an additional constraint of a minimum expression ratio of 1 was applied to control false positives to 5%. The gene list was clustered and the genes showing upregulation at any of the time points considered were selected. […] Most of the genes listed in the table function in immune response or host-pathogen interaction. The table includes several cytokines and their receptors, genes involved in immune cell proliferation, and calcium-binding proteins that have a role in downstream signaling.

[1] = 2AA pre-BI, blood 24 hr post-BI (FIG. 38)

## CC(=O)c1ccccc1N [2AA, 2′-aminoacetophenone]
[1]
  down-regulated genes in 2AA-treated BI samples: 23 genes
  up-regulated genes in 2AA-treated BI samples: do not identify any up-regulated
6 h after IP 2AA, blood
  Fold Change AF220015 Rpt-1; regulatory protein, T lymphocyte 1: 2.3 fold
  Fold Change AF237910 Membrane-spanning 4-domains, subfamily A: 2.8 fold
  Fold Change AI323359 Csfmr, colony stimulating factor IR, regulator of myeloid cell proliferation: 2.3 fold
  Fold Change AI462015 Nuclear factor of kappa light chain gene enhancer in B-cells inhibitor, alpha: 2.3 fold
  Fold Change AI648846 Solute carrier family 6: 10.1 fold
  Fold Change AV026617 FBJ osteosarcoma oncogene: 15.0 fold
  Fold Change AV229143 Interferon activated gene (202A): 21.2 fold
  Fold Change AV318494 Myeloid cell leukemia sequence 1: 1.8 fold
  Fold Change BB193024 Interferon-induced transmembrane protein-2: 5.0 fold
  Fold Change BB241535 Suppressor of cytokine signaling 3: 4.9 fold
  Fold Change BB769628 Colony stimulating factor 2 receptor, beta 1: 14.9 fold
  Fold Change BB784999 Triggering receptor expressed on myeloid cells 1: 11.6 fold
  Fold Change BB831725 Suppressor of cytokine signaling 3: 20.8 fold
  Fold Change BC003839 Myeloid cell leukemia sequence 1 (Mcl1): 1.5 fold
  Fold Change BC010291 Interferon-inducible protein (Cd225): 1.3 fold
  Fold Change BC011092 Chemokine (C-C) receptor 1: 1.2 fold
  Fold Change BC011437 IL-1β: 3.5 fold
  Fold Change BC012653 Chemokine (C-X3-C) receptor 1: 30.6 fold
  Fold Change BC021916 EMAPI, cytokine activity: 1.7 fold
  Fold Change BC022943 Lymphocyte cytosolic protein 1: 2.0 fold
  Fold Change BE285634 Interleukin-1 receptor accessory protein: 1.0 fold
  Fold Change NM_008039 Receptor activity [formyl peptide receptor, related sequence 2] (Fpr-rs2): 13.6 fold
  Fold Change NM_008677 p40phox; intracellular signaling cascade neutrophil cytosolic factor 4 (Ncf4): 1.1 fold
  Fold Change NM_008879 Pls2, L-fimbrin, calcium ion binding lymphocyte cytosolic proteing 1 (Lep 1): 20.4 fold
  Fold Change NM_009883 Nuclear factor induced by IL-6 (NF-IL6): 1.0 fold
  Fold Change NM_011087 Paired-Ig-like receptor A1 (Piral): 1.9 fold
  Fold Change NM_011313 Cacy; calcium binding protein A6 (calcyclin)cyclin-dependent protein kinase: 5.7 fold
  Fold Change NM_011315 Saa-3 lipid transported activity acute phase response: 4.7 fold
  Fold Change NM_011355 PU.1, transcription factor complex cell growth and/or maintenance: 17.0 fold
  Fold Change NM_011940 Interferon-activatable protein (Ifi202): 29.8 fold
  Fold Change NM_011999 DCIR; C-type (calcium dependent, carbohydrate recognition domain) lectin: 22.8 fold
  Fold Change NM_030691 Integral to membrane immunoglobulin superfamily, member 6 (Igsf6): 14.9 fold
  Fold Change NM_030694 Interferon-induced transmembrane protein-3: 4.7 fold
  Fold Change U05264 Glycoprotein 49B (Gp49b): 4.7 fold
  Fold Change U72644 Leukocyte specific transcript 1: 1.6 fold
  Fold Change X14607 Lipocalin 2: 13.9 fold
6 hours after 2′-aminoacetophenone
  additional genes upregulated (higher cutoff, Table 4): 10 genes
24 h after IP 2AA, blood
  Fold Change AF220015 Rpt-1; regulatory protein, T lymphocyte 1: 0.6 fold
  Fold Change AF237910 Membrane-spanning 4-domains, subfamily A: 0.5 fold
  Fold Change AI323359 Csfmr, colony stimulating factor IR, regulator of myeloid cell proliferation: 0.7 fold
  Fold Change AI462015 Nuclear factor of kappa light chain gene enhancer in B-cells inhibitor, alpha: 0.4 fold
  Fold Change AI648846 Solute carrier family 6: 8.0 fold
  Fold Change AV026617 FBJ osteosarcoma oncogene: 23.8 fold
  Fold Change AV229143 Interferon activated gene (202A): 10.9 fold
  Fold Change AV318494 Myeloid cell leukemia sequence 1: 1.1 fold
  Fold Change BB193024 Interferon-induced transmembrane protein-2: 1.0 fold
  Fold Change BB241535 Suppressor of cytokine signaling 3: 1.1 fold
  Fold Change BB769628 Colony stimulating factor 2 receptor, beta 1: 6.9 fold
  Fold Change BB784999 Triggering receptor expressed on myeloid cells 1: 5.9 fold
  Fold Change BB831725 Suppressor of cytokine signaling 3: 6.5 fold
  Fold Change BC003839 Myeloid cell leukemia sequence 1 (Mcl1): 0.0 fold
  Fold Change BC010291 Interferon-inducible protein (Cd225): 0.0 fold
  Fold Change BC011092 Chemokine (C-C) receptor 1: −0.9 fold
  Fold Change BC011437 IL-1β: 0.6 fold
  Fold Change BC012653 Chemokine (C-X3-C) receptor 1: 11.6 fold
  Fold Change BC021916 EMAPI, cytokine activity: 0.3 fold
  Fold Change BC022943 Lymphocyte cytosolic protein 1: 0.2 fold
  Fold Change BE285634 Interleukin-1 receptor accessory protein: 0.2 fold
  Fold Change NM_008039 Receptor activity [formyl peptide receptor, related sequence 2] (Fpr-rs2): 0.6 fold
  Fold Change NM_008677 p40phox; intracellular signaling cascade neutrophil cytosolic factor 4 (Ncf4): 0.2 fold
  Fold Change NM_008879 Pls2, L-fimbrin, calcium ion binding lymphocyte cytosolic proteing 1 (Lep 1): 8.4 fold
  Fold Change NM_009883 Nuclear factor induced by IL-6 (NF-IL6): 0.3 fold
  Fold Change NM_011087 Paired-Ig-like receptor A1 (Piral): 0.9 fold
  Fold Change NM_011313 Cacy; calcium binding protein A6 (calcyclin)cyclin-dependent protein kinase: 2.3 fold
  Fold Change NM_011315 Saa-3 lipid transported activity acute phase response: 5.6 fold
  Fold Change NM_011355 PU.1, transcription factor complex cell growth and/or maintenance: 0.0 fold
  Fold Change NM_011940 Interferon-activatable protein (Ifi202): 9.4 fold
  Fold Change NM_011999 DCIR; C-type (calcium dependent, carbohydrate recognition domain) lectin: 8.0 fold
  Fold Change NM_030691 Integral to membrane immunoglobulin superfamily, member 6 (Igsf6): 3.5 fold
  Fold Change NM_030694 Interferon-induced transmembrane protein-3: 1.1 fold
  Fold Change U05264 Glycoprotein 49B (Gp49b): 1.0 fold
  Fold Change U72644 Leukocyte specific transcript 1: 0.9 fold
